Read-outs that look alike come from different tables or passages of the source.

These results are taken from patent US10174037B2, “Dihydropyrazolopyrimidinone compounds as PDE2 inhibitors” (Merck Sharp & Dohme Corp., priority 2015, dated 2019).

Experiment [1] concerns the target Rhesus PDE2A3 (Macaca mulatta, UniProt B3VTJ2). In words: PDE2 fluorescence polarization (IMAP FP) assay, rhesus PDE2A3. Type of experiment: biochemical, rhesus macaque.
Experiment [2] deals with human PDE2A1 (Homo sapiens (Human), UniProt O00408). The experiment can be described thus: PDE selectivity IMAP FP assay, human PDE2A1. Type of experiment: biochemical. The following applies: Human PDE2. The procedure, abridged: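 IMAP fluorescence polarization assay; PDE2 substrate 50 nM FAM-cAMP containing 1000 nM cGMP, enzyme diluted for 20% substrate conversion, in 10 mM Tris HCl pH 7.2, 10 mM MgCl2, 1 mM DTT. Reaction 60 min at room temperature, stopped with IMAP binding solution; polarization read after 1 h. Ki reported.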
human PDE2A1, sequence (O00408 other isoform, or with tags, fused parts or gaps): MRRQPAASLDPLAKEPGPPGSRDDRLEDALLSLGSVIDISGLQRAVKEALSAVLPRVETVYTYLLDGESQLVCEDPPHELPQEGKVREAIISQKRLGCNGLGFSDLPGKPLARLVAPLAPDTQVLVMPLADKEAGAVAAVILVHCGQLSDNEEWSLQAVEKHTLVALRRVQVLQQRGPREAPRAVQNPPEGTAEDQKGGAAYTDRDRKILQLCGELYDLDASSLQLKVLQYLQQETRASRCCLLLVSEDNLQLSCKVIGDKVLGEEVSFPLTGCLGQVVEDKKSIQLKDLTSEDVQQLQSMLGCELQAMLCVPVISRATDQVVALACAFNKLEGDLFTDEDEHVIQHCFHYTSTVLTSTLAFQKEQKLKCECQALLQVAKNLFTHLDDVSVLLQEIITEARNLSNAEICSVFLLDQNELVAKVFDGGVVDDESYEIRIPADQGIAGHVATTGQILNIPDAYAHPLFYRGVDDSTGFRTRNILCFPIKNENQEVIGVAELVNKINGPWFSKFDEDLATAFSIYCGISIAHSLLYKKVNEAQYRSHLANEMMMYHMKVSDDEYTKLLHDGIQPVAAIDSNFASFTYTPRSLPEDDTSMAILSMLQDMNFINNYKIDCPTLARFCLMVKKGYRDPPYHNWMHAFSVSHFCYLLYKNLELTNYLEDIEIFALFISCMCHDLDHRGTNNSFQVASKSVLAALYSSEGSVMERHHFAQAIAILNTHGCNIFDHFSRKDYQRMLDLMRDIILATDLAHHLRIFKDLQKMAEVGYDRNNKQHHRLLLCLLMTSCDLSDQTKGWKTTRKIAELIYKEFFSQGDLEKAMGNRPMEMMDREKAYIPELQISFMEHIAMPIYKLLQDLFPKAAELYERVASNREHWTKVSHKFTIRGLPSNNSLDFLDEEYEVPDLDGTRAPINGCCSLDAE

Setting [3] is: Lab B, read-out: Rhesus PDE2 Ki (nM) Lab B.
Setting [4] is: Lab B, read-out: Human PDE2 Ki (nM) Lab B.
[5] abbreviates: Lab A, read-out: Rhesus PDE2 Ki (nM) Lab A.
[6] abbreviates: Lab A, read-out: Human PDE2 Ki (nM) Lab A.

Rhesus PDE2A3, sequence (B3VTJ2 1-941): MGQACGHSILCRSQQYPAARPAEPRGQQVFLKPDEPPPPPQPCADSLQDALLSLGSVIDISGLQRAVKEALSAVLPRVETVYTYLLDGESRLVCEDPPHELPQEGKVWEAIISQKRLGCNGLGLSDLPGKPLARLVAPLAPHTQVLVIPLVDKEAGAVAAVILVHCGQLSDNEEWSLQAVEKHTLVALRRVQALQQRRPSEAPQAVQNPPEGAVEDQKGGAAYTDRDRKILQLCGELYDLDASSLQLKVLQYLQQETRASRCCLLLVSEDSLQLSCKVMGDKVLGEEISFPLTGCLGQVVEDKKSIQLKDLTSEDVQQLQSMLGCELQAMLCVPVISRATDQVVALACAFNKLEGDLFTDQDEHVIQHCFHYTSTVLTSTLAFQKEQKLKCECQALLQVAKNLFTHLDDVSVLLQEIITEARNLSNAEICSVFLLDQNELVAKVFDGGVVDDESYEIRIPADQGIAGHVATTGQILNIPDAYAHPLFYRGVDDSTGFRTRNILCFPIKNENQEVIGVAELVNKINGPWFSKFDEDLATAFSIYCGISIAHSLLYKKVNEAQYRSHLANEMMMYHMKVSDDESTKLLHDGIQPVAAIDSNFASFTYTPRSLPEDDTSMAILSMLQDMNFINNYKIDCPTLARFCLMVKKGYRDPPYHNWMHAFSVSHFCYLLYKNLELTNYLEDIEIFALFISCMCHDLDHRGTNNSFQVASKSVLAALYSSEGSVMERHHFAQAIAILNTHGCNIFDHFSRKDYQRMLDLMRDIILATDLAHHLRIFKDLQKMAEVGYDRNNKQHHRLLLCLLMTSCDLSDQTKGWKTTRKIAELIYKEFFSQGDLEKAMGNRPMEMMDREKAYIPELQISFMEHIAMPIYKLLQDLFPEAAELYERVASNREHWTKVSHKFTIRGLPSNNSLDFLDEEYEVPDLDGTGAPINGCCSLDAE

Turning to `CN(C)c1nc2c(c(CO)nn2C(c2ccc(CC(F)(F)F)c(F)c2)C2CC2)c(=O)[nH]1` (single isomer, unassigned) [Example 95, (S)- or (R)-1-(Cyclopropyl(3-fluoro-4-(2,2,2-trifluoroethyl)phenyl)methyl)-6-(dimethylamino)-3-(hydroxymethyl)-1H-pyrazolo[3,4-d]pyrimidin-4(5H)-one], the Ki in experiment [1] (setting [3]) came out at 0.44 nM; in experiment [2] (setting [4]), 0.39 nM.

`CC(c1ccc(OC(F)(F)F)c(F)c1)n1nc(CF)c2c(=O)[nH]c(N(C)C)nc21` (single isomer, unassigned) [Example 166, (R)- or (S)-6-(Dimethylamino)-1-(1-(3-fluoro-4-(trifluoromethoxy)phenyl)ethyl)-3-(fluoromethyl)-1H-pyrazolo[3,4-d]pyrimidin-4(5H)-one]: the Ki in experiment [1] (setting [3]) came out at 0.91 nM; in experiment [2] (setting [4]) it was 0.61 nM. The like results for `CCC(c1ccc(OC(F)F)c(F)c1)n1nc(CO)c2c(=O)[nH]c(N(C)C)nc21` (single isomer, unassigned) [Example 127, (S)- or (R)-1-(1-(4-(Difluoromethoxy)-3-fluorophenyl)propyl)-6-(dimethylamino)-3-(hydroxymethyl)-1H-pyrazolo[3,4-d]pyrimidin-4(5H)-one] were, in that order, 1.4 nM and 0.81 nM.

For `CC(c1ccc(OC(F)(F)F)c(F)c1)n1nc(CF)c2c(=O)[nH]c(O)nc21` (stereo not drawn) [Example 38, 1-(1-(3-Fluoro-4-(trifluoromethoxy)phenyl)ethyl)-3-(fluoromethyl)-6-hydroxy-1H-pyrazolo[3,4-d]pyrimidin-4(5H)-one], the Ki in experiment [1] (setting [5]) was 7.2 nM; in experiment [1] (setting [3]) it was 8.3 nM; in experiment [2] (setting [6]), 2.8 nM; in experiment [2] (setting [4]), 8.5 nM. As for `CC(C)C(c1ccc(OC(F)(F)F)cc1)n1nc(CF)c2c(=O)[nH]c(O)nc21` (single isomer, unassigned) [Example 43, (S)- or (R)-3-(Fluorornethyl)-6-hydroxy-1-(2-methyl-1-(4-(trifluoromethoxy)phenyl)propyl)-1H-pyrazolo[3,4-d]pyrimidin-4(5H)-one], the Ki in experiment [1] (setting [3]) is 4.7 nM; in experiment [2] (setting [4]) it was 5.3 nM. The like results for `CCC(c1ccc(C(C)(F)F)c(F)c1)n1nc(CO)c2c(=O)[nH]c(N(C)C)nc21` (single isomer, unassigned) [Example 113] were, in that order, 0.055 nM and 0.057 nM. The like results for `CCC(c1ccc(OC(F)F)cc1)n1nc(CO)c2c(=O)[nH]c(N(C)C)nc21` (single isomer, unassigned) [Example 124, (R)- or (S)-1-(1-(4-(Difluoromethoxy)phenyl)propyl)-6-(dimethylamino)-3-(hydroxymethyl)-1H-pyrazolo[3,4-d]pyrimidin-4(5H)-one] were, in that order, 0.7 nM and 0.73 nM. The corresponding values for `C[C@@H](c1ccc(C(F)(F)F)cc1)n1nc(CC#N)c2c(=O)[nH]c(O)nc21` [Example 298, (S)-2-(6-Hydroxy-4-oxo-1-(1-(4-(trifluoromethyl)phenyl)ethyl)-4,5-dihydro-1H-pyrazolo[3,4-d]pyrimidin-3-yl)acetonitrile] are 5 nM and 4.7 nM. Take `O=c1[nH]c(O)nc2c1c(CC(F)(F)F)nn2C(c1ccc(C(F)(F)F)c(F)c1)C1CC1` (single isomer, unassigned) [Example 238, (R)- or (S)-1-(Cyclopropyl(3-fluoro-4-(trifluoromethyl)phenyl)methyl)-6-hydroxy-3-(2,2,2-trifluoroethyl)-1H-pyrazolo[3,4-d]pyrimidin-4(5H)-one]: the Ki in experiment [1] (setting [3]) stood at 7.1 nM; in experiment [2] (setting [4]), 5.8 nM. The corresponding values for `CC(c1ccc(OC(F)(F)F)cc1)n1nc(CO)c2c(=O)[nH]c(N(C)C)nc21` (single isomer, unassigned) [Example 148, (R)- or (S)-6-(Dimethylamino)-3-(hydroxymethyl)-1-(1-(4-(trifluoromethoxy)phenyl)ethyl)-1H-pyrazolo[3,4-d]pyrimidin-4(5H)-one] are 3.3 nM and 2.6 nM. With `CC(C)C(c1ccc(C(F)F)cc1)n1nc(CO)c2c(=O)[nH]c(N(C)C)nc21` (single isomer, unassigned) [Example 90, (R)- or (S)-1-(1-(4-(Difluoromethyl)phenyl)-2-methylpropyl)-6-(dimethylamino)-3-(hydroxymethyl)-1H-pyrazolo[3,4-d]pyrimidin-4(5H)-one], the results for the Ki in experiment [1] (setting [3]) and in experiment [2] (setting [4]) were 2.3 nM and 1.1 nM, respectively.

For the compound `CC(c1ccc(C(F)(F)F)cc1)n1nc(CC(F)(F)F)c2c(=O)[nH]c(O)nc21` (single isomer, unassigned) [Example 257, (S)- or (R)-6-Hydroxy-3-(2,2,2-trifluoroethyl)-1-{1-(4-(trifluoromethyl)phenyl]ethyl}-1,5-dihydro-4H-pyrazolo[3,4-d]pyrimidin-4-one], the Ki in experiment [1] (setting [5]) is 0.96 nM; in experiment [1] (setting [3]), 1.5 nM; in experiment [2] (setting [6]), 0.68 nM; in experiment [2] (setting [4]), 2 nM.

`CCC(c1ccc(C(C)(F)F)cc1F)n1nc(CO)c2c(=O)[nH]c(N(C)C)nc21` (single isomer, unassigned) [Example 111, (S)- or (R)-1-(1-(4-(1,1-Difluoroethyl)-2-fluorophenyl)propyl)-6-(dimethylamino)-3-(hydroxymethyl)-1H-pyrazolo[3,4-d]pyrimidin-4(5H)-one]: the Ki in experiment [1] (setting [3]) was 0.14 nM; in experiment [2] (setting [4]), 0.12 nM. The corresponding values for `CC(C)c1ccc(C(C2CC2)n2nc(CF)c3c(=O)[nH]c(N(C)C)nc32)cc1` (single isomer, unassigned) [Example 183, (R)- or (S)-1-(Cyclopropyl(4-isopropylphenyl)methyl)-6-(dimethylamino)-3-(fluoromethyl)-1H-pyrazolo[3,4-d]pyrimidin-4(5H)-one] are 0.082 nM and 0.064 nM. The like results for `CCC(c1ccc(C(C)(F)F)cc1F)n1nc(CF)c2c(=O)[nH]c(N(C)C)nc21` (single isomer, unassigned) [Example 214, (R)- or (S)-1-(1-(4-(1,1-Difluoroethyl)-2-fluorophenyl)propyl)-6-(dimethylamino)-3-(fluoromethyl)-1H-pyrazolo[3,4-d]pyrimidin-4(5H)-one] were, in that order, 0.05 nM and 0.045 nM. Consider `CCC(c1ccc(C(F)(F)F)cc1F)n1nc(CO)c2c(=O)[nH]c(N(C)C)nc21` (single isomer, unassigned) [Example 130, (R)- or (S)-6-(Dimethylamino)-1-(1-(2-fluoro-4-(trifluoromethyl)phenyl)propyl)-3-(hydroxymethyl)-1H-pyrazolo[3,4-d]pyrimidin-4(5H)-one], for which the Ki in experiment [1] (setting [3]) amounted to 0.12 nM; in experiment [2] (setting [4]), 0.071 nM. As for `CC(c1ccc(C(C)(F)F)cc1F)n1nc(CF)c2c(=O)[nH]c(N(C)C)nc21` (single isomer, unassigned) [Example 209, (S)- or (R)-1-(1-(4-(1,1-Difluoroethyl)-2-fluorophenyl)ethyl)-6-(dimethylamino)-3-(fluoromethyl)-1H-pyrazolo[3,4-d]pyrimidin-4(5H)-one], the Ki is 0.14 nM in experiment [1] (setting [3]) and 0.077 nM in experiment [2] (setting [4]).

Consider `CC(C)C(c1ccc(C(C)(F)F)c(F)c1)n1nc(CO)c2c(=O)[nH]c(N(C)C)nc21` (single isomer, unassigned) [Example 116, (R)- or (S)-1-(1-(4-(1,1-Difluoroethyl)-3-fluorophenyl)-2-methylpropyl)-6-(dimethylamino)-3-(hydroxymethyl)-1H-pyrazolo[3,4-d]pyrimidin-4(5H)-one], for which the Ki in experiment [1] (setting [3]) worked out at 0.16 nM; in experiment [2] (setting [4]), 0.13 nM. Take `C[C@@H](c1ccc(C(F)(F)F)cc1)n1nc(COCc2ccccc2)c2c(=O)[nH]c(O)nc21` [Example 303, (S)-3-((Benzyloxy)methyl)-6-hydroxy-1-(1-(4-(trifluoromethyl)phenyl)ethyl)-1,5-dihydro-4H-pyrazolo[3,4-d]pyrimidin-4-one]: the Ki in experiment [1] (setting [3]) is 206 nM. Same read-out and setting: in the case of `O=c1[nH]c(O)nc2c1c(CC(F)(F)F)nn2C(c1ccc(OC(F)(F)F)cc1)C1CC1` (single isomer, unassigned) [Example 242, (R)- or (S)-1-(Cyclopropyl(4-(trifluoromethoxy)phenyl)methyl)-6-hydroxy-3-(2,2,2-trifluoroelhyl)-1H-pyrazolo[3,4-d]pyrimidin-4(5H)-one] it was 150 nM. Turning to `O=c1[nH]c(O)nc2c1c(CO)nn2C(c1ccc(C(F)(F)F)cc1)C1CC1` (single isomer, unassigned) [Example 15, (S) or (R)-1-(Cyclopropyl(4-(trifluoromethyl)phenyl)methyl)-6-hydroxy-3-(hydroxymethyl)-1H-pyrazolo[3,4-d]pyrimidin-4(5H)-one], in experiment [1] (setting [3]), the Ki is 17 nM. Same read-out and setting: to `CC(C)C(c1ccc(C(C)(C)C)cc1)n1nc(CC(F)(F)F)c2c(=O)[nH]c(O)nc21` (single isomer, unassigned) [Example 261, (S)- or (R)-1-(1-(4-tert-Butylphenyl)-2-methylpropyl)-6-hydroxy-3-(2,2,2-trifluoroethyl)-1H-pyrazolo[3,4-d]pyrimidin-4(5H)-one] belongs approximately 1400 nM; to `O=c1[nH]c(O)nc2c1c(CC(F)(F)F)nn2C(c1ccc(C(F)(F)F)c(F)c1)C1CC1` (single isomer, unassigned) [Example 239, (S)- or (R)-1-(Cyclopropyl(3-fluoro-4-(trifluoromethyl)phenyl)methyl)-6-hydroxy-3-(2,2,2-trifluoroethyl)-1H-pyrazolo[3,4-d]pyrimidin-4(5H)-one], 166 nM.

The Ki is the dissociation constant of the complex between target and ligand, obtained from inhibition or displacement.
